According to US12336981B2, “Compounds and compositions for the inhibition of NAMPT” (Valo Health, Inc., priority 2010, dated 2025):
Read-outs that look alike come from different tables or passages of the source.

Experiments:
[1] = target: T1, NAMPT (Homo sapiens, UniProt P43490); experiment: Biochemical inhibition assay: NAMPT enzymatic reaction, NMN quantified by mass spectrometry; details: read-out: Biochem IC50
T1 construct: His tag; host or cells: E. coli
Method in brief: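 Inhibition of E. coli-expressed His-tagged human NAMPT, measured as NMN formation by mass spectrometry after a 30 min room-temperature reaction containing 1 μM NAM, 100 μM PRPP and 2.5 mM ATP.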

[2] = test system: A2780 cells; experiment: In-vitro cell proliferation assay (SRB), A2780 cells; type: cell-based; details: Homo sapiens, A2780, 72 h, A2780 cells, 72 hours, read-out: A2780 IC50
Method: In-Vitro Cell Proliferation Assay
After overnight incubation at 37° C. and 5% CO2, the compound titrations were performed in a separate dilution plate by serially diluting the compounds in DMSO to make a 1000× stock. The compounds were then further diluted to 10× final concentration in culture media, whereupon 20 μL of each dilution was added to the plated cells with controls (e.g. DMSO and blank) to make a final volume of 200 μL. The final DMSO concentration in each well was 0.1%. The plates were then incubated for 72 hours at 37° C. in a 5% CO2 incubator. The number of viable cells was then assessed using sulforhodamine B (SRB) assay. Cells were fixed at 4° C. for 1 hour with the addition of 50 μL 30% trichloroacetic acid (TCA) to make a final concentration of 6% TCA. The plates were washed four times with H2O and allowed to dry for at least 1 hour, whereupon 100 μL of a 4% SRB in 1% acetic acid solution was added to each well and incubated at room temperature for at least 30 minutes. The plates were then washed three times with 1% acetic acid, dried, and treated with 100 μL of 10 mM Tris-Base solution. The plates were then read in a microplate reader at an absorbance of 570 nm. Background was generated on a separate plate with media only.
Method for Determining % Inhibition
First, the signals from the background plate are averaged, then the background was subtracted from the test plates.
wherein X denotes the compound concentration 1, Y denotes the compound concentration 2, XX denotes the % inhibition at compound concentration 1 (X), and YY denotes the % inhibition at compound concentration 2 (Y).

T1 sequence (P43490 whole entry): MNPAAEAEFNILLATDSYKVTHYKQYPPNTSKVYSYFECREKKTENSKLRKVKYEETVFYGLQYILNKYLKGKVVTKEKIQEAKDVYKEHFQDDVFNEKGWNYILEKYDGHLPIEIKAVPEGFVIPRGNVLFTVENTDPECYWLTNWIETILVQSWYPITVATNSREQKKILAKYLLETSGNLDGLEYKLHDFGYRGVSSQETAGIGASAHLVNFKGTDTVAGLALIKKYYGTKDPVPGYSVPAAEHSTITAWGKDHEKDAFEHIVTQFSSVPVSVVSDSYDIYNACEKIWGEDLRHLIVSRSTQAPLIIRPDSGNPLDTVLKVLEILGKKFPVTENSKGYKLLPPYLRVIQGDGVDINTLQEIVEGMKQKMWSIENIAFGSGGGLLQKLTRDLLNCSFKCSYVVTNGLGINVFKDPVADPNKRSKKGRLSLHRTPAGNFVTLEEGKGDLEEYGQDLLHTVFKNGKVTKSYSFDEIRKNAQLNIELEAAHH

| Compound | IC50 ([1]; NAMPT enzymatic reaction) [nM] | IC50 ([2]; SRB) [nM] | IC50 ([1]; NAMPT enzymatic assay) [nM] | IC50 ([2]; SRB assay) [nM] |
| --- | --- | --- | --- | --- |
| COc1ccc(S(=O)(=O)c2ccc(CNC(=O)c3cc4ccncc4s3)cc2)cc1Cl [N-({4-[(3-chloro-4-methoxybenzene)sulfonyl]phenyl}methyl)thieno[2,3-c]pyridine-2-carboxamide] | 5 | 1.6 | – | – |
| COc1c(C)cc(S(=O)(=O)c2ccc(CNC(=O)c3cnc4[nH]ncc4c3)cc2)cc1C [N-({4-[(4-methoxy-3,5-dimethylbenzene)sulfonyl]phenyl}methyl)-1H-pyrazolo[3,4-b]pyridine-5-carboxamide] | 5 | 1.85 | – | – |
| O=C(NCc1ccc(S(=O)(=O)c2ccc(Cn3ccnc3)cc2)cc1)c1cc2ccncc2s1 | – | 12.2 | 5.3 | – |
| CC(=O)c1ccc(S(=O)(=O)c2ccc(CNC(=O)c3cnc4[nH]ncc4c3)cc2)cc1 | 28.9 | 3.7 | – | – |
| O=C(NCc1ccc(S(=O)(=O)c2cccc(OC(F)(F)F)c2)cc1)c1ccc2nccn2c1 [N-[(4-{[3-(trifluoromethoxy)benzene]sulfonyl}phenyl)methyl]imidazo[1,2-a]pyridine-6-carboxamide] | – | 3.18 | 8.73 | – |
| CN(C)c1ncc(S(=O)(=O)c2ccc(CNC(=O)c3cc4cnccc4[nH]3)cc2)cn1 [N-({4-[2-(dimethylamino)pyrimidine-5-sulfonyl]phenyl}methyl)-1H-pyrrolo[3,2-c]pyridine-2-carboxamide] | – | 3.5 | 19 | – |
| O=C(NCc1ccc(NS(=O)(=O)c2ccccc2)cc1)c1cc2cnccc2[nH]1 [N-[(4-benzenesulfonamidophenyl)methyl]-1H-pyrrolo[3,2-c]pyridine-2-carboxamide] | 11 | – | – | 5 |
| COc1ccc(S(=O)(=O)c2ccc(CNC(=O)c3cc4cnccc4[nH]3)cc2)cc1C [N-({4-[(4-methoxy-3-methylbenzene)sulfonyl]phenyl}methyl)-1H-pyrrolo[3,2-c]pyridine-2-carboxamide] | 10 | – | – | 2 |
| O=C(NCc1ccc(S(=O)(=O)c2cc(C(F)(F)F)ccn2)cc1)c1cc2ccncc2o1 [N-({4-[4-(trifluoromethyl)pyridine-2-sulfonyl]phenyl}methyl)furo[2,3-c]pyridine-2-carboxamide] | – | 6.1 | 13.9 | – |
| Cc1cc(C)cc(S(=O)(=O)c2ccc(CNC(=O)c3ccc4nccn4c3)cc2)c1 [N-({4-[(3,5-dimethylbenzene)sulfonyl]phenyl}methyl)imidazo[1,2-a]pyridine-6-carboxamide] | 6.76 | 3.17 | – | – |
| O=C(NCc1ccc(S(=O)(=O)c2cc(Cl)cc(C(F)(F)F)c2)cc1)c1cc2cnccc2[nH]1 [N-[(4-{[3-chloro-5-(trifluoromethyl)benzene]sulfonyl}phenyl)methyl]-1H-pyrrolo[3,2-c]pyridine-2-carboxamide] | – | 2.7 | 19.9 | – |
| Cc1nc(S(=O)(=O)c2ccc(CNC(=O)c3cc4ccncc4o3)cc2)cs1 [N-{[4-(2-methyl-1,3-thiazole-4-sulfonyl)phenyl]methyl}furo[2,3-c]pyridine-2-carboxamide] | – | 69 | 36.7 | – |
| COc1ccc(OC(F)(F)F)cc1S(=O)(=O)c1ccc(CNC(=O)c2ccc3nccn3c2)cc1 | – | 14.4 | 67.7 | – |
| COc1ccccc1S(=O)(=O)c1ccc(CNC(=O)c2cc3ccncc3o2)cc1 [N-({4-[(2-methoxybenzene)sulfonyl]phenyl}methyl)furo[2,3-c]pyridine-2-carboxamide] | 18.9 | 26.5 | – | – |
| COc1cccc(S(=O)(=O)c2ccc(CNC(=O)c3ccc4nccn4c3)cc2)n1 [N-{[4-(6-methoxypyridine-2-sulfonyl)phenyl]methyl}imidazo[1,2-a]pyridine-6-carboxamide] | – | 1.3 | 5.2 | – |
| O=C(NCc1ccc(S(=O)(=O)c2cccc(OCCN3CCOCC3)c2)cc1)c1cc2cnccc2[nH]1 | – | 12.6 | 64.9 | – |
| O=C(NCc1ccc(S(=O)(=O)c2cccc(C(=O)NC3CCCC3)c2)cc1)c1cnc2[nH]ncc2c1 [N-[(4-{[3-(cyclopentylcarbamoyl)benzene]sulfonyl}phenyl)methyl]-1H-pyrazolo[3,4-b]pyridine-5-carboxamide] | – | 33 | 33.3 | – |

| Compound | IC50 ([1]; NAMPT enzymatic reaction) [nM] | IC50 ([2]; SRB) [nM] | IC50 ([1]; NAMPT enzymatic assay) [nM] | IC50 ([2]; SRB assay) [nM] |
| --- | --- | --- | --- | --- |
| Cc1cc(C(F)(F)F)ccc1S(=O)(=O)c1ccc(CNC(=O)c2cc3ccncc3s2)cc1 | – | 24.2 | 10.3 | – |
| Cc1ccc(S(=O)(=O)c2ccc(CNC(=O)c3cc4ccncc4s3)cc2)s1 [N-{[4-(5-methylthiophene-2-sulfonyl)phenyl]methyl}thieno[2,3-c]pyridine-2-carboxamide] | 5 | – | – | 7.7 |
| O=C(NCc1ccc(S(=O)(=O)c2cc(F)cc(C(F)(F)F)c2)cc1)c1cnc2nccn2c1 | – | 1.1 | 5.9 | – |
| CCOc1ccc(S(=O)(=O)c2ccc(CNC(=O)c3cc4ccncc4s3)cc2)cc1 | 2.1 | 4 | – | – |
| O=C(NCc1ccc(S(=O)(=O)c2cc(F)ccc2Cl)cc1)c1cc2ccncc2s1 | 4.2 | 5.7 | – | – |
| COc1cc(F)ccc1S(=O)(=O)c1ccc(CNC(=O)c2ccc3nccn3c2)cc1 [N-({4-[(4-fluoro-2-methoxybenzene)sulfonyl]phenyl}methyl)imidazo[1,2-a]pyridine-6-carboxamide] | 19.3 | 7.05 | – | – |
| CCCCOc1ccc(S(=O)(=O)c2ccc(CNC(=O)c3cc4ccncc4o3)cc2)c(C)c1 | 16 | 64.8 | – | – |
| Cn1cc(S(=O)(=O)c2ccc(CNC(=O)c3ccc4nccn4c3)cc2)c(C(F)(F)F)n1 [N-({4-[1-methyl-3-(trifluoromethyl)-1H-pyrazole-4-sulfonyl]phenyl}methyl)imidazo[1,2-a]pyridine-6-carboxamide] | – | 27.8 | 29.9 | – |
| COc1ccc(C(C)(C)C)cc1S(=O)(=O)c1ccc(CNC(=O)c2cnc3nccn3c2)cc1 | – | 7.7 | 9.8 | – |
| CN(C)CCc1ccc(S(=O)(=O)c2ccc(CNC(=O)c3cnc4nccn4c3)cc2)cc1 | – | 18.1 | 2 | – |
| COc1ccc(S(=O)(=O)c2ccc(CNC(=O)c3ccc4nccn4c3)cc2)cc1OC [N-({4-[(3,4-dimethoxybenzene)sulfonyl]phenyl}methyl)imidazo[1,2-a]pyridine-6-carboxamide] | 12 | 2.51 | – | – |
| CCCn1cc(S(=O)(=O)c2ccc(CNC(=O)c3cc4ccncc4s3)cc2)cn1 [N-{[4-(1-propyl-1H-pyrazole-4-sulfonyl)phenyl]methyl}thieno[2,3-c]pyridine-2-carboxamide] | – | 1.6 | 1.9 | – |
| COc1cncc(S(=O)(=O)c2ccc(CNC(=O)c3ccc4nccn4c3)cc2)c1 [N-{[4-(5-methoxypyridine-3-sulfonyl)phenyl]methyl}imidazo[1,2-a]pyridine-6-carboxamide] | – | 3.4 | 9 | – |
| COc1cc(F)ccc1S(=O)(=O)c1ccc(CNC(=O)c2cnc3nccn3c2)cc1 | 19.1 | 73.6 | – | – |
| COc1ccc(S(=O)(=O)c2ccc(CNC(=O)c3cc4ccncc4s3)cc2)cc1C [N-({4-[{4-methoxy-3-methylbenzene)sulfonyl]phenyl}methyl)thieno[2,3-c]pyridine-2-carboxamide] | 3 | – | – | 2.4 |
| Cc1ccc(Cl)c(S(=O)(=O)c2ccc(CNC(=O)c3ccc4nccn4c3)cc2)c1 | 5.6 | 4.6 | – | – |
